Measurements: patent US20260035360A1, “INHIBITORS OF MYC AND USES THEREOF” (Northwestern University, priority 2022, published 2026)

Assays:
Assay type in all cases: cell-based
PC3 cells = experiment: PC3 cell viability, CellTitreGlo Assay, 72 hrs; settings: Homo sapiens, PC-3
Experimental: (§1) Table 2. Biological data of selected compounds. For IC50 determination. PC3 and PC12 cells were treated with increasing concentrations of the indicated compounds for 72 hrs and cell viability assessed using CellTitreGlo Assay (Promega). For MYC and ATF4 protein level determination. PC3 cells were treated with the indicated compounds for 24 hr sand cell lysates processed for western blot with MYC and ATF4 antibodies using Actin as a control. Quantification analyses were performed by Biorad ChemiDoc Imager and Bio-Rad Image Lab software.

PC12 cells = experiment: PC12 cell viability, CellTitreGlo Assay, 72 hrs; settings: Rattus norvegicus, PC-12
Experimental: as §1

MYC = target: T1, MYC (Homo sapiens, UniProt P01106); experiment: MYC protein level in PC3 cells by western blot, 24 hr; settings: PC-3, 24 h, PC3, 24 h, Actin control, read-out: Relative MYC protein at 10 μM (%, PC3 24 h)
T1 construct: endogenous in cells; host or cells: PC3 cells
Experimental: as §1

ATF4 = ATF4 protein level in PC3 cells by western blot, 24 hr; settings: Homo sapiens, PC-3, PC3, 24 h, Actin control, read-out: Relative ATF4 protein at 10 μM (fold change, PC3 24 h)
Experimental: as §1

T1 sequence (P01106 whole entry): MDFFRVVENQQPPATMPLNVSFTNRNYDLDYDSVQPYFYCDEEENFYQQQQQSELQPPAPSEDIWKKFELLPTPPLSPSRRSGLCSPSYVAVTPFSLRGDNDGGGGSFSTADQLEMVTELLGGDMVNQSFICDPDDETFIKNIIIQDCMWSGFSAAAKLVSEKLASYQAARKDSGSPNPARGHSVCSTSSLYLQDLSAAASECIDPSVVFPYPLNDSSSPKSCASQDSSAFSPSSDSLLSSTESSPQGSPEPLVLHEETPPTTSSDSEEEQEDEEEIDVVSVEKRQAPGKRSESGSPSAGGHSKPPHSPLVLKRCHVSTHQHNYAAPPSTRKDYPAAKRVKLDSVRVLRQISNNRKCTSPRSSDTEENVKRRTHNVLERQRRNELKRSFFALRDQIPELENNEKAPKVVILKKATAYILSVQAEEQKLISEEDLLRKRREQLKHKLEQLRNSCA

Compound	IC50 (PC3 cells) [µM]	IC50 (PC12 cells) [µM]	remaining activity at 10 µM (MYC) [%]	fold induction at 10 µM (ATF4)
Cn1nc(C(F)(F)F)c(Cl)c1-c1ccc(COc2ccc(Cl)cc2Cl)c(-c2ccc(Cl)c(C(F)(F)F)c2)c1O [NUCC-0227064]	0.399	8.27	42	12.7
Cc1ccc(C2(Oc3ccc(-c4cc(C(F)(F)F)nn4C)c(O)c3-c3ccc(Cl)c(C(F)(F)F)c3)CC2)cc1 [NUCC-0226495]	3.8	597	15.6	11.5
Cn1nc(C(F)(F)F)cc1-c1ccc(N(CC23CC4CC(CC(C4)C2)C3)C(=O)c2ccc(Cl)c(C(F)(F)F)c2)cc1O [NUCC-0226225]	2.1	14.5	28.4	15.2
Cn1nc(C#N)cc1-c1cc(Cl)c(COc2ccc(Cl)cc2)c(-c2ccc(Cl)c(C(F)(F)F)c2)c1O [NUCC-0227065]	0.74	3.8	35.4	13.4
Cn1nc(C#N)cc1-c1ccc(OCc2ccc(Cl)cc2)c(-c2ccc(Cl)c(C(F)(F)F)c2)c1O [NUCC-0226914]	1.01	3.5	48.5	14.1
Cn1nc(C(F)(F)F)cc1-c1ccc(OCc2ccc(Cl)cc2)c(-c2ccc(Cl)c(C#N)c2)c1O [NUCC-0226499]	2.4	13.5	37.3	17.1
CN(C)c1c(Cl)cc(-c2cc(C(F)(F)F)nn2C)c(O)c1-c1ccc(Cl)c(C(F)(F)F)c1 [NUCC-0226530]	12	9.4	35.5	3
C[C@@H](C(=O)N[C@H](C(=O)N1C[C@@H](NC(=O)COCCOCCNC(=O)CCOCCCN(C(=O)c2ccc(Cl)c(C(F)(F)F)c2)c2ccc(-c3cc(C(F)(F)F)nn3C)c(O)c2)C[C@H]1C(=O)N[C@@H]1CCCc2ccccc21)C1CCCCC1)N(C)C(=O)OC(C)(C)C [NUCC-0226299]	3.8	11.3	42.1	5.4
Cn1nc(C(F)(F)F)cc1-c1ccc(Oc2ccc(Cl)cc2)c(-c2ccc(Cl)c(C(F)(F)F)c2)c1O [NUCC-0227247]	1.14	7.12	46.7	18.3
CC(=O)N[C@@H](C(=O)N1C[C@@H](O)C[C@@H]1C(=O)NCc1ccc(-c2scnc2C)cc1OCCOCCNC(=O)CCOCCCN(C(=O)c1ccc(Cl)c(C(F)(F)F)c1)c1ccc(-c2cc(C(F)(F)F)nn2C)c(O)c1)C(C)(C)C [NUCC-0226290]	5.1	–	27.4	2.9
Cn1nc(C(F)(F)F)cc1-c1ccc(N(CCCOCCC(=O)NCCOCCNc2cccc3c2C(=O)N(C2CCC(=O)NC2=O)C3=O)C(=O)c2ccc(Cl)c(C(F)(F)F)c2)cc1O (centres unmarked) [NUCC-0226288]	6	–	54.2	6.6
COc1c(Cl)cc(-c2cc(C(F)(F)F)nn2C)c(O)c1-c1ccc(Cl)c(C(F)(F)F)c1 [NUCC-0226500]	1.6	8.6	72.4	7.7
CNc1c(Cl)cc(-c2cc(C(F)(F)F)nn2C)c(O)c1-c1ccc(Cl)c(C(F)(F)F)c1 [NUCC-0226529]	3.1	19.4	41.3	2.4
Cn1nc(C(F)(F)F)cc1-c1ccc(OCCCCCOCCOCCOc2cccc3c2C(=O)N(C2CCC(=O)NC2=O)C3=O)c(-c2ccc(Cl)c(C(F)(F)F)c2)c1O (centres unmarked) [NUCC-0226224]	10.1	–	84.2	8.1
Cc1ncsc1-c1ccc(CNC(=O)[C@@H]2C[C@@H](O)CN2C(=O)[C@@H](NC(=O)CCCCCCCCNC(=O)CCOCCCN(C(=O)c2ccc(Cl)c(C(F)(F)F)c2)c2ccc(-c3cc(C(F)(F)F)nn3C)c(O)c2)C(C)(C)C)cc1 [NUCC-0226226]	5.1	–	81.9	10.6
Cn1nc(C(F)(F)F)cc1-c1cc(Cl)c(CNc2ccc(Cl)cc2)c(-c2ccc(Cl)c(C(F)(F)F)c2)c1O [NUCC-0227062]	0.964	2.31	40.7	15
C[C@@H](Oc1ccc(-c2cc(C(F)(F)F)nn2C)c(O)c1-c1ccc(Cl)c(C(F)(F)F)c1)c1ccccc1 [NUCC-0226433]	4	–	35	10.6
Cc1ncsc1-c1ccc(CNC(=O)[C@@H]2C[C@H](O)CN2C(=O)[C@H](NC(=O)COCCNC(=O)CCOCCCN(C(=O)c2ccc(Cl)c(C(F)(F)F)c2)c2ccc(-c3cc(C(F)(F)F)nn3C)c(O)c2)C(C)(C)C)cc1 [NUCC-0226291]	4	14.6	54.6	1.8

Compound	IC50 (PC3 cells) [µM]	IC50 (PC12 cells) [µM]	remaining activity at 10 µM (MYC) [%]	fold induction at 10 µM (ATF4)
Cn1nc(C(F)(F)F)cc1-c1cc(Cl)c(N)c(-c2ccc(Cl)c(C(F)(F)F)c2)c1O [NUCC-0226528]	4.5	30.5	19.8	2
Cn1nc(C(F)(F)F)cc1-c1ccc(OCc2ccc(Cl)cc2)c(-c2ccc(Cl)c(Cl)c2)c1O [NUCC-0226496]	5.3	–	25.4	10.3
Cc1ncsc1-c1ccc(CNC(=O)[C@@H]2C[C@@H](O)CN2C(=O)[C@@H](NC(=O)CCCCCCCCCCNC(=O)CCOCCCN(C(=O)c2ccc(Cl)c(C(F)(F)F)c2)c2ccc(-c3cc(C(F)(F)F)nn3C)c(O)c2)C(C)(C)C)cc1 [NUCC-0226227]	22.3	–	102	10.2
Cn1nc(C(F)(F)F)cc1-c1cc2c(c(-c3ccc(Cl)c(C(F)(F)F)c3)c1O)OC(c1ccc(Cl)cc1)CC2 (centres unmarked) [NUCC-0227173]	4.74	14.1	62.9	9
Cn1cncc1-c1ccc(OCc2ccc(Cl)cc2)c(-c2ccc(Cl)c(C(F)(F)F)c2)c1O [NUCC-0226660]	> 50	9.22	94.4	2.5
Cn1nc(C(F)(F)F)c(Cl)c1-c1cc(F)c(COc2ccc(Cl)cc2)c(-c2ccc(Cl)c(C(F)(F)F)c2)c1O [NUCC-0227063]	0.985	5.02	37.2	12.4
CNc1ccc(-c2cc(C(F)(F)F)nn2C)c(O)c1-c1ccc(Cl)c(C(F)(F)F)c1 [NUCC-0226527]	6.2	–	50.8	1.2
Cn1nc(C(F)(F)F)c(Cl)c1-c1cc(Cl)c(COc2ccc(Cl)cc2Cl)c(-c2ccc(Cl)c(C(F)(F)F)c2)c1O [NUCC-0227038]	1.61	15.3	34.5	15.1
COCCCN(C(=O)c1ccc(C(F)(F)F)c(Cl)c1)c1ccc(-c2cc(C(F)(F)F)nn2C)c(O)c1 [NUCC-0226267]	4.6	–	46.4	8
COc1ccc(C2=N[C@@H](c3ccc(Cl)cc3)[C@@H](c3ccc(Cl)cc3)N2C(=O)N2CCN(CCCCCOc3ccc(-c4cc(C(F)(F)F)nn4C)c(O)c3-c3ccc(Cl)c(C(F)(F)F)c3)C(=O)C2)c(OC(C)C)c1 [NUCC-0226223]	18.6	–	91.5	5.5
Cn1nc(C(F)(F)F)c(Cl)c1-c1cc(Cl)c(Oc2ccc(Cl)cc2)c(-c2ccc(Cl)c(C(F)(F)F)c2)c1O [NUCC-0227246]	0.91	5.78	37.3	23.5
CN1C(=O)CCC(N2C(=O)c3cccc(NCCOCCOCCNC(=O)CCOCCCN(C(=O)c4ccc(Cl)c(C(F)(F)F)c4)c4ccc(-c5cc(C(F)(F)F)nn5C)c(O)c4)c3C2=O)C1=O (centres unmarked) [NUCC-0226292]	10.1	–	65.1	1.1
Cn1nc(C(F)(F)F)cc1-c1ccc(OCc2ccc(OCCOCCNc3cccc4c3C(=O)N(C3CCC(=O)NC3=O)C4=O)cc2)c(-c2ccc(Cl)c(C(F)(F)F)c2)c1O (centres unmarked) [NUCC-0226301]	1.1	3.8	48.5	3.2
Cn1nc(C(F)(F)F)cc1-c1ccc(N(CCCOCCC(=O)NCCOCCOCCNc2cccc3c2C(=O)N(C2CCC(=O)NC2=O)C3=O)C(=O)c2ccc(Cl)c(C(F)(F)F)c2)cc1O (centres unmarked) [NUCC-0226231]	8.5	–	53.6	14.3
Cn1nc(C(F)(F)F)cc1-c1ccc(Cc2ccc(Cl)cc2)c(-c2ccc(Cl)c(C(F)(F)F)c2)c1O [NUCC-0226566]	3.88	–	43.7	10.5
CC(C)Cc1ccc([C@@H](C)Oc2ccc(-c3cc(C(F)(F)F)nn3C)c(O)c2-c2ccc(Cl)c(C(F)(F)F)c2)cc1 [NUCC-0226437]	5.4	–	50.7	9
Cn1nc(C(F)(F)F)cc1-c1ccc(OCc2ccc(Cl)cc2)c(-c2ccc(F)c(F)c2)c1O [NUCC-0226504]	7.3	–	32.5	5.2
Cn1nc(C(F)(F)F)cc1-c1ccc(OCc2ccc(Cl)cc2)c(-c2ccc(Cl)cc2F)c1O [NUCC-0226497]	24.8	–	93	5.9
